Measured values as given in the CheMixHub drug solubility set.

Assay: xn = mol fraction of the nth substance listed, in the solute-free solvent

CC(=O)Nc1ccc(OC(=O)c2ccccc2OC(C)=O)cc1 + CCO + O
solubility (g/100 g solution)
Settings | 278.15 K | 283.15 K | 288.15 K | 293.15 K | 298.15 K | 303.15 K | 308.15 K | 313.15 K | 318.15 K
x2 = 0.04165 | 0.00299 | 0.00439 | 0.00634 | 0.00913 | 0.0133 | 0.0185 | 0.0258 | 0.0351 | 0.0474
x2 = 0.08908 | 0.00839 | 0.0122 | 0.0171 | 0.0242 | 0.0339 | 0.0464 | 0.0629 | 0.0839 | 0.112
x2 = 0.1436 | 0.0202 | 0.0284 | 0.0401 | 0.0539 | 0.0744 | 0.0995 | 0.133 | 0.175 | 0.232
x2 = 0.2068 | 0.037 | 0.0513 | 0.0699 | 0.0951 | 0.127 | 0.166 | 0.221 | 0.283 | 0.366
x2 = 0.2812 | 0.0604 | 0.0826 | 0.111 | 0.146 | 0.19 | 0.252 | 0.322 | 0.409 | 0.514
x2 = 0.3698 | 0.082 | 0.109 | 0.148 | 0.197 | 0.255 | 0.33 | 0.424 | 0.542 | 0.69
x2 = 0.4772 | 0.108 | 0.144 | 0.193 | 0.254 | 0.327 | 0.418 | 0.536 | 0.684 | 0.863
x2 = 0.6101 | 0.134 | 0.178 | 0.236 | 0.306 | 0.396 | 0.513 | 0.661 | 0.829 | 1.04
x2 = 0.7788 | 0.157 | 0.206 | 0.273 | 0.356 | 0.458 | 0.586 | 0.741 | 0.936 | 1.18
